The subject of data set [1] is Hepatocyte Growth Factor (HGF). Nature of the data set: HGF mRNA expression in TGF-β1-treated normal human dermal fibroblasts (real-time PCR). To be noted: compound 500 μM, 24 h; for fold induction at 500 µM: Homo sapiens, NHDF + rhTGF-β1 (10 ng/ml), TGF-β1 control = 1.00, untreated = 7.23, read-out: HGF Relative Quantitation. The class given is cell-based. The method, then: (§1) Experiments were undertaken to determine the effect of compounds on hepatocyte growth factor expression in vitro normal human dermal fibroblasts (NHDF) from adult donor (Clonetics #CC-2511). NHDF were starved overnight in DMEM/F12+0.5% FBS and treated with or without rhTGF-β1 (10 ng/ml) and compound I (500 μM) for 24 h. RNA was isolated with miRNeasy® kit (QIAGEN®), including on-column DNase digestion step. cDNA synthesis was done (0.5 μg RNA/reaction) using the RT^2 First Strand kit (QIAGEN® #330401). Real-Time PCR was performed as described in the RT^2 Profiler PCR Array handbook on a AB-7900HT real-time cycler. Real-Time PCR data was analyzed using the ΔΔCt method on the RT^2 Profiler PCR Array Data Analysis Web Portal. All Ct values >35 or non amplified were changed to the cut-off value of 35. The housekeeping genes used for normalization are GAPDH and RPLP0. The control group is TGF-β1 treated cells.
In general terms: In qPCR the cycle at which signal appears reflects the starting amount.

Data set [2] has as its system Serpin A1 (AAT). Nature of the data set: AAT mRNA expression, qPCR-panel on NHDF (FIG. 4). To be noted: injured NHDF cells. In kind it is cell-based, human. As for the experimental part:
as §1, with “cells. As mentioned above, AAT can induce nerve regeneration. […] Compound I is representative of the compounds of formula I disclosed herein. Therefore, the compounds of formula I disclosed herein may increase regeneration of nerves via the production of endogenous AAT at the site of injury.” for “cells.”

The subject of data set [3] is injured kidney. In words: Organ function (GFR) of an injured kidney (FIG. 5). The class given is in vivo.
In data set [4] the test system is LOX, MMP1, MMP2, MMP9, MMP13, TIMP3 and PLAT (tPA). Nature of the data set: Expression of regeneration markers in TGF-β1-injured HK-2 epithelial cells (FIG. 3). In kind it is cell-based, human. Particulars: HK-2 cells, rhTGF-β1 (10 ng/ml), compound 500 μM, 24 h.
Data set [5] has as its system LOX, MMP13, PLAU (uPA), serpin E1, TIMP3 and ILK. Nature of the data set: Expression of regeneration markers in TGF-β1-injured NHDF (FIG. 2). In kind it is cell-based, human. Particulars: rhTGF-β1 (10 ng/ml), compound 500 μM, 24 h. The method, then:
as §1, with “cells. An experiment was undertaken to determine the effect of compounds on the expression of regeneration markers. This experiment was performed with NHDF (Normal Human Dermal Fibroblasts) and human epithelial cells (renal tubular epithelial cells, HK-2) involved in tissue regeneration after single, multiple or constant injury. Injury was simulated by incubation of the cells with TGF-β1. […]” for “cells.”

Data set [6] relates to Hepatocyte Growth Factor (HGF). Nature of the data set: HGF mRNA expression in TGF-β1-treated normal human dermal fibroblasts (real-time PCR). In kind it is cell-based. Particulars: NHDF + rhTGF-β1 (10 ng/ml), 24 h, TGF-β1 control = 1.00, untreated = 7.23, read-out: HGF Relative Quantitation; for fold induction at 250 µM: compound 250 μM; for fold induction at 100 µM: compound 100 μM.

Counter-ions that a name gives are not always drawn.

`CCCCCc1cccc(C(F)C(=O)O)c1` (racemic) [Compound XIII, Sodium Salt of (RS)-2-Fluoro-2-(3-pentylphenyl)acetic acid]: the fold induction at 500 µM in data set [1] was found to be 1.71.
Turning to `CCCCCc1cccc(CC(=O)[O-])c1.[Na+]` [Compound I, Sodium Salt of (3-pentylphenyl)acetic acid], in data set [2], the “AAT mRNA expression” value is “increase AAT mRNA expression”. Further, in data set [3], the “organ function (GFR)” value is on record as “increase in organ function (GFR)”. Also, the “expression level of regeneration markers LOX, MMP1, MMP2, MMP9, MMP13, TIMP3 and PLAT (tPA)” value in data set [4] is “all expressed at a level close to the normal level observed in healthy cells”. Also, in data set [5], the “expression level of regeneration markers LOX, MMP13, PLAU (uPA), serpin E1, TIMP3 and ILK” value was “all expressed at a normal level”. Also, the fold induction at 500 µM in data set [1] was 4.23. In addition, the “expression of HGF (FIG. 1), result in words” value in data set [1] (NHDF, rhTGF-β1 (10 ng/ml)) is “increases the expression of HGF”.
In the case of `CCCCCc1cccc(CCC(=O)O)c1` [Compound II, Sodium Salt of 3-(3-pentylphenyl)propionic acid], the fold induction at 250 µM in data set [6] is 1.37.
Consider `CCCCc1cccc(CCC(=O)O)c1` [Compound III, Sodium Salt of 3-(3-butylphenyl)propionic acid], for which the fold induction at 500 µM in data set [1] stood at 2.41.
As for `CCC/C=C/c1cccc(CC(=O)O)c1` [Compound IV, Sodium Salt of E-(3-pent-1-enyl-phenyl)acetic acid], the fold induction at 500 µM in data set [1] is 3.8.
In the case of `CCCC/C=C/c1cccc(CC(=O)O)c1` [Compound V, Sodium Salt of 2-(3-(Hex-1-enyl]phenyl)acetic acid], the fold induction at 100 µM in data set [6] came to 2.73.
Regarding `CCCCCCc1cccc(CC(=O)O)c1` [Compound VI, Sodium Salt of 2-(3-Hexylphenyl)acetic acid], the fold induction at 100 µM in data set [6] stood at 2.77.
`CCCCCc1cc(O)cc(CC(=O)O)c1` [Compound VII, Sodium Salt of 3-hydroxy-5-pentylphenylacetic acid]: in data set [1], the fold induction at 500 µM came out at 2.66.
In the case of `CCCCCc1cc(CC(=O)O)ccc1O` [Compound VIII, Sodium Salt of 2-(4-Hydroxy-3-pentylphenyl)acetic acid], in data set [1], the fold induction at 500 µM is 1.44.
Take `CCCCCc1cc(F)cc(CC(=O)O)c1` [Compound X, Sodium Salt of 2-(3-fluoro-5-pentylphenyl)acetic acid]: in data set [6], the fold induction at 250 µM amounted to 3.06.
On the same count and under the same terms, then `CCCCCc1cccc(CC(=O)O)c1F` [Compound XI, Sodium Salt of 2-(2-Fluoro-3-pentylphenyl)acetic acid], with 3.38.
Consider `CCCCCc1cc(CC(=O)O)ccc1F` [Compound XII, Sodium Salt of 2-(4-Fluoro-3-pentylphenyl)acetic acid], for which the fold induction at 500 µM in data set [1] came to 2.47.
As for `CCCCCc1cc(CCCCC)cc(CC(=O)[O-])c1.[Na+]` [Compound XIV, Sodium 2-[3,5-Dipentylphenyl]acetate], the melting point lay within 225 to 230 °C.
As to `CCCCCc1cc(CC(=O)O)cc(CCCCC)c1O` [Compound XVIII, Sodium Salt of 2-(4-Hydroxy-3,5-dipentylphenyl)acetic acid], in data set [6] (compound 25 μM), the fold induction at 25 µM came out at 1.4.
With `CCCCCc1cc(CCCCC)c(F)c(CC(=O)O)c1` [Compound XXXII, Sodium Salt of 2-(2-Fluoro-3,5-dipentylphenyl)acetic Acid], in data set [6] (compound 10 μM), the fold induction at 10 µM came out at 1.73.
For `CCCCCc1cc(CCCCC)cc(C(C)(C)C(=O)O)c1` [Compound XXXIII, Sodium Salt of 2-(3,5-Dipentylphenyl)-2-methylpropanoic Acid], the fold induction at 6 µM in data set [6] (compound 6 μM) came to 1.54.

What is called melting point is the temperature, or range, at which the solid turns liquid.

The record behind these values is US10869849B2, “Substituted aromatic compounds and pharmaceutical compositions for tissue self-repair and regeneration” (Liminal BioSciences Limited, priority 2014, dated 2020).
